# Numbered stars: 1 amine (or outer) side, 2 acyl side, 3 side chain; on linkers, the order of the positions; unused ones are H or OH. Bridge positions count the residues as written; N and C are the ends. Square brackets hold non-standard residues; d marks the D form. Peptide text beside a SMILES is read from it. * marks the point of attachment. Orn(4R-OH,5R-OCH2CH2NMe3+) = C[N+](C)(C)CCO[C@@H](N[*:3])[C@H](O)C[C@H](N[*:1])C(=O)[*:2]; pTerphenylCO(4''-OnC5H11) = CCCCCOc1ccc(-c2ccc(-c3ccc(C(=O)*)cc3)cc2)cc1; hTyr(3S-OH,4S-OH) = N[C@H](C(=O)O)[C@H](O)[C@@H](O)c1ccc(O)cc1; Pro(3S-OH,4S-Me) = C[C@H]1CN[C@H](C(=O)O)[C@H]1O; Hyp = O=C(O)[C@@H]1C[C@@H](O)CN1
# Assays:
# MDR1 = MDR1 (Homo sapiens, UniProt P08183); experiment: NC-160 substrate interaction, MDR1; format: in vitro ADME; conditions: efflux (ABC) transporter
# Sequence of MDR1 (P08183 whole entry): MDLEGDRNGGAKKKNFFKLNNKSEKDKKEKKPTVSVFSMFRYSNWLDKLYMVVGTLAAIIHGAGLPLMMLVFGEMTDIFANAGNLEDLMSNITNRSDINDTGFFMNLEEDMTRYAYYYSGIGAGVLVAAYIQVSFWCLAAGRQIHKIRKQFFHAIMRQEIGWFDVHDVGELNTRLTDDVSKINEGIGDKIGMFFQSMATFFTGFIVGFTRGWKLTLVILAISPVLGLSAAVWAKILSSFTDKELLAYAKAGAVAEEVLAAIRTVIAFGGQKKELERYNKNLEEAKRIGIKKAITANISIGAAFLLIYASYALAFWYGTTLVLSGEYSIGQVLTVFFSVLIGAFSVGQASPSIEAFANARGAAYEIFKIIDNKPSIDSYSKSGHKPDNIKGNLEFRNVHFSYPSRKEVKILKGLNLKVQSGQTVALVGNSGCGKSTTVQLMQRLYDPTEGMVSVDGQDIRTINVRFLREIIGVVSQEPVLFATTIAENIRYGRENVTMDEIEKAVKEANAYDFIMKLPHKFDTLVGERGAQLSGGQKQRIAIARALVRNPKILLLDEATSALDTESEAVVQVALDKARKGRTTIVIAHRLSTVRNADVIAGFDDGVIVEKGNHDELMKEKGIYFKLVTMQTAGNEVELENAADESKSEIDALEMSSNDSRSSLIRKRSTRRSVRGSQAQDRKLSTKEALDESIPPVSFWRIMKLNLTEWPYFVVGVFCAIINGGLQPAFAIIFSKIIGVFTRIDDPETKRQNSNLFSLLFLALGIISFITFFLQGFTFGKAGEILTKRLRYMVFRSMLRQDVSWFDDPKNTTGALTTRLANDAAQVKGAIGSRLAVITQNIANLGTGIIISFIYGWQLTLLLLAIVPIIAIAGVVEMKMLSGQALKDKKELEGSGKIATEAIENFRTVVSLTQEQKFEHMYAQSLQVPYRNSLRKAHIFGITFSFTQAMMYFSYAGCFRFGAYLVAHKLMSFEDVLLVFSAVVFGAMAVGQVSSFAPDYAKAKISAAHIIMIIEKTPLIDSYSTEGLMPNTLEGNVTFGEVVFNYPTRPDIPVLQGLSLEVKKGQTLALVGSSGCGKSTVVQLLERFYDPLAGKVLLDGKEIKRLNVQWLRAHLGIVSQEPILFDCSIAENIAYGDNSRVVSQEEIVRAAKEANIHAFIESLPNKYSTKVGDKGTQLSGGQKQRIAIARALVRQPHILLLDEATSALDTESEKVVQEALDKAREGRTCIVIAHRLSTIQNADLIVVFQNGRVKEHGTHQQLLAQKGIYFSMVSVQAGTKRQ
# Text: (§1) Microbiology Spectrum Supplementary materials
# (§2) Table S 4Summary of initial in vitro assessments […]
# (§3) whether rezafungin can induce CYP isoforms 1A2, 2B6, or 3A4. mRNA expression) of CYP1A2 and CYP2B6, and, in the case of […]
# (§4) Abbreviations: ABC = ATP binding cassette; BCRP = breast cancer resistance protein; BSEP = bile salt export pump; CYP = cytochrome P450; MATE = multidrug and toxic compound extrusion; MDCK = Madin-Darby canine kidney; MDR = multidrug resistance protein; mRNA = messenger ribonucleic acid; OAT = organic anion transporter; OATP = organic anion transporter protein; OCT – organic cation transporter; OCTN = organic cation transporter novel; P-gp = P-glycoprotein; SLC = solute carrier.
# OCT1 = target: T1, OCT1 (Homo sapiens, UniProt O15245); experiment: NC-152 transporter inhibition, OCT1; format: in vitro ADME
# T1 sequence (O15245 1-554): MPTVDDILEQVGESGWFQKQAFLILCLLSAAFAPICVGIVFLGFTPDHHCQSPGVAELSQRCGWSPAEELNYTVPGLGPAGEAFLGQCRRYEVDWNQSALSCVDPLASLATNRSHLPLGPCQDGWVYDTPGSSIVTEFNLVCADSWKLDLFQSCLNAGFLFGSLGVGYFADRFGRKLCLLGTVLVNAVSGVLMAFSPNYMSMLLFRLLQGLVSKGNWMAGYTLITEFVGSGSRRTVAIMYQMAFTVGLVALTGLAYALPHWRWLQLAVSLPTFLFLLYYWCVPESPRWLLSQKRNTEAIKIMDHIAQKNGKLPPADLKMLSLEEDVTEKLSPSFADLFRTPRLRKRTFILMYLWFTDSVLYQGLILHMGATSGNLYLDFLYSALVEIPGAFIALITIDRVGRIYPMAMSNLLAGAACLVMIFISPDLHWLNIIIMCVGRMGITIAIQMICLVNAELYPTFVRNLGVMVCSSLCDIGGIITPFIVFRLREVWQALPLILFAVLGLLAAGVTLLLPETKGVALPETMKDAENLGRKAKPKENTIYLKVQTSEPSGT
# Text: (§5) Abbreviations: ABC = ATP binding cassette; BCRP = breast cancer resistance protein; BSEP = bile salt export pump; CYP = cytochrome P450; MATE =
# (§6) multidrug and toxic compound extrusion; MDCK = Madin-Darby canine kidney; MDR = multidrug resistance protein; mRNA = messenger ribonucleic acid;
# (§7) OAT = organic anion transporter; OATP = organic anion transporter protein; OCT – organic cation transporter; OCTN = organic cation transporter novel; P-gp =
# (§8) P-glycoprotein; SLC = solute carrier.
# CYP2C19 [1] = target: T2, CYP2C19 (Homo sapiens, UniProt P33261); experiment: NC-153 time-dependent inhibition in human liver microsomes, CYP2C19; format: in vitro ADME; conditions: 0.1 to 25 μM
# T2 sequence (P33261 whole entry): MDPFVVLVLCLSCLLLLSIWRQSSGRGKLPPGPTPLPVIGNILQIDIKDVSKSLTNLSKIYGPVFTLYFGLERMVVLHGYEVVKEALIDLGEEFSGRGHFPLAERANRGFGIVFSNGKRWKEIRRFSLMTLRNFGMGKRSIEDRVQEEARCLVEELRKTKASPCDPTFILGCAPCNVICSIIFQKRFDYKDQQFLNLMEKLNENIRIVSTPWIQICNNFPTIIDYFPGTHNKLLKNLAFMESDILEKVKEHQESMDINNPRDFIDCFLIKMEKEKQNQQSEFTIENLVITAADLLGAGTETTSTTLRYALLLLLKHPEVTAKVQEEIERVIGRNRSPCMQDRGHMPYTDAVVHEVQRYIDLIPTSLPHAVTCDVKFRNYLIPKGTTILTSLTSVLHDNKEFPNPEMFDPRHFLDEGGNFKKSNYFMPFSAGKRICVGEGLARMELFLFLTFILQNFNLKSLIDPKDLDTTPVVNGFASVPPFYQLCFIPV
# Text: as §1, §2, §3, §4
# CYP2D6 [2] = target: T3, CYP2D6 (Homo sapiens, UniProt P10635); experiment: NC-153 time-dependent inhibition in human liver microsomes, CYP2D6; format: in vitro ADME; conditions: 0.1 to 25 μM
# T3 sequence (P10635 whole entry): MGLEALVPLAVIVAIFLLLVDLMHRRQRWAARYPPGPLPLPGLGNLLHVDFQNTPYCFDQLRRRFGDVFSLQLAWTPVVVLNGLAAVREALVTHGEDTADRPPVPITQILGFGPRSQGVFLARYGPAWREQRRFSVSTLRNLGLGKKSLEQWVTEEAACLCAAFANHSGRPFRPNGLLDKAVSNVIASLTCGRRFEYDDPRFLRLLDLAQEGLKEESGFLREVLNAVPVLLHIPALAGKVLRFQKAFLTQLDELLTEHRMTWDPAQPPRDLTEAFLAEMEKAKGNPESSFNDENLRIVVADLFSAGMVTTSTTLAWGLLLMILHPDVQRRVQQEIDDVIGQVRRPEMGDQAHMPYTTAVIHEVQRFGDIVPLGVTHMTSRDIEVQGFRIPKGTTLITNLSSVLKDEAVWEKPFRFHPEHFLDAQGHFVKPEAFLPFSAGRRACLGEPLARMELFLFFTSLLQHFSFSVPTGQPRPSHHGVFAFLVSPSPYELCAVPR
# Text: as §1, §2, §3, §4
# CYP3A4 = CYP3A4 (Homo sapiens, UniProt P08684)
# Sequence of CYP3A4 (P08684 whole entry): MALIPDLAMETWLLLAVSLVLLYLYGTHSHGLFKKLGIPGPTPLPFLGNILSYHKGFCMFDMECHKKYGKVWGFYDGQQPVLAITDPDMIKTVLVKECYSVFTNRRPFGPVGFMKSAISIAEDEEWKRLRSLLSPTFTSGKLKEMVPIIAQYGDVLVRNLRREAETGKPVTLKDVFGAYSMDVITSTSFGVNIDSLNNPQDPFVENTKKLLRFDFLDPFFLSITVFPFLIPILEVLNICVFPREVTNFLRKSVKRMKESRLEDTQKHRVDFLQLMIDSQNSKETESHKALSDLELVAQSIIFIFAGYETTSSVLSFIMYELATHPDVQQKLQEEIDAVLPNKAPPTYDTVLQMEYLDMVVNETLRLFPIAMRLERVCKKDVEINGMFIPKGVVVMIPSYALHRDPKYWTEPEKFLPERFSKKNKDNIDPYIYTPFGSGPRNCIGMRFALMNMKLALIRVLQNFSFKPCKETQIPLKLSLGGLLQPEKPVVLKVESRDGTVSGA
# Text: as §5, §6, §7, §8
# [3] = tested on: Caco-2 epithelial monolayers; experiment: NC-049 membrane permeability in Caco-2 monolayers; format: in vitro ADME; conditions: Caco-2 epithelial monolayers expressing human P-gp and BCRP; both transport directions, in the absence and presence of inhibitors; study NC-049
# Text: as §1, §2, §3, §4
# human MATE2-K = human MATE2-K (Homo sapiens, UniProt Q86VL8); experiment: NC-152 transporter inhibition, MATE2-K; format: in vitro ADME; conditions: in vitro cell test system
# Sequence of human MATE2-K (Q86VL8 1-566 isoform Q86VL8-3): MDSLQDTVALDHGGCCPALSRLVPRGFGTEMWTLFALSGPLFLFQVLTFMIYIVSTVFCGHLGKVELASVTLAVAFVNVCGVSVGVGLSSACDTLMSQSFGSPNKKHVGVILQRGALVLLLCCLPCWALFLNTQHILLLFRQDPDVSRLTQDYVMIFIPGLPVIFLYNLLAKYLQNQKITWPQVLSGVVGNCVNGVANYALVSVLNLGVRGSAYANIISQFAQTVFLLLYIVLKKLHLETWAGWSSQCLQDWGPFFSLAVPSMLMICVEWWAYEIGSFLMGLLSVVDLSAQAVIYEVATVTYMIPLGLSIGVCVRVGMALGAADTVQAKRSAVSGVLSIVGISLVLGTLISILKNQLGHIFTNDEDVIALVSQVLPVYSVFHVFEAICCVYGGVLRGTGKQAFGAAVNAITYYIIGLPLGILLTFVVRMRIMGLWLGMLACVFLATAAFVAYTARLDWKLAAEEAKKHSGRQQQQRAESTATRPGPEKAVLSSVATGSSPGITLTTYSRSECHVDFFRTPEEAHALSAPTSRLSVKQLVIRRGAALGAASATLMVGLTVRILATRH
# Text: as §1, §2, §3, §4
# [4] = Study 2 safety and tolerability (TEAEs)
# Experimental: After screening, subjects were admitted to the CRU on day −17 (prior to the first rezafungin dose) and were discharged on day 22. Rezafungin was dosed via i.v. infusion over 1 h at 400 mg on day 1 and 200 mg on day 8 and day 15. The oral drugs to be tested for interactions were each administered twice on a schedule designed to allow washout between doses: once alone and once while receiving rezafungin (Fig. 4B). The total duration of treatment was approximately 84 days, which included 45 days of screening and 39 days of treatment in the CRU.
# In both studies, the safety population included all subjects who received any amount of the study drug. In study 1, the rezafungin safety population included all subjects who received any amount of rezafungin. Safety assessments included vital signs (temperature, heart rate, blood pressure, and respiratory rate), safety laboratory evaluations (hematology assessment, serum chemistry panel, and urinalysis), physical examinations (complete and symptom directed), and EKGs.
# as §1
# Abbreviations: TEAE = treatment-emergent adverse event.
# N = number of subjects in the safety population; n = number of subjects in a sample.
# Notes: Each TEAE was counted only once for each subject within each System Organ Class and Preferred Term.
# human OATP1B3 = human OATP1B3 (Homo sapiens, UniProt Q9NPD5); experiment: NC-052 OATP1B3 substrate study in transiently transfected HEK293 cells; format: in vitro ADME
# Sequence of human OATP1B3 (Q9NPD5 whole entry): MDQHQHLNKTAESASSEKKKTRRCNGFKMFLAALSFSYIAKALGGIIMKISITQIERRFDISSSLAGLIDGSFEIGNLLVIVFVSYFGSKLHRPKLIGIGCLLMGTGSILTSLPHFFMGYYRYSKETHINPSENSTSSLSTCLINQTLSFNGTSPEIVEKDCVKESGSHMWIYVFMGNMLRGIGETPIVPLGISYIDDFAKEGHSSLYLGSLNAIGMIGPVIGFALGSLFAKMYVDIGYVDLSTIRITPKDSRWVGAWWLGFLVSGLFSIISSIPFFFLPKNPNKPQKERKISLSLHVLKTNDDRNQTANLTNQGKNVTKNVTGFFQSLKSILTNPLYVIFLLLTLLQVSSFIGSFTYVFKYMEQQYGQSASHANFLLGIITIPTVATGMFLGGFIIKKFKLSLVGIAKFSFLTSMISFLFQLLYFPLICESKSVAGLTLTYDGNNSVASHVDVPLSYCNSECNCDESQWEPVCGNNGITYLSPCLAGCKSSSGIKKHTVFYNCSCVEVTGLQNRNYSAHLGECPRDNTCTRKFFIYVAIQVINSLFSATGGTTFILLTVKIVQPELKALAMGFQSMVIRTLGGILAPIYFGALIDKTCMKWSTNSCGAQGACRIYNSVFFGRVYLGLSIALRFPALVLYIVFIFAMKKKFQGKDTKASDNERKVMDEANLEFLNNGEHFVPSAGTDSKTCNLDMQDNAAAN
# Text: as §1, §2, §3, §4
# human OAT1 = human OAT1 (Homo sapiens, UniProt Q4U2R8); experiment: NC-152 transporter inhibition, OAT1; format: in vitro ADME; conditions: in vitro cell test system
# Sequence of human OAT1 (Q4U2R8 whole entry): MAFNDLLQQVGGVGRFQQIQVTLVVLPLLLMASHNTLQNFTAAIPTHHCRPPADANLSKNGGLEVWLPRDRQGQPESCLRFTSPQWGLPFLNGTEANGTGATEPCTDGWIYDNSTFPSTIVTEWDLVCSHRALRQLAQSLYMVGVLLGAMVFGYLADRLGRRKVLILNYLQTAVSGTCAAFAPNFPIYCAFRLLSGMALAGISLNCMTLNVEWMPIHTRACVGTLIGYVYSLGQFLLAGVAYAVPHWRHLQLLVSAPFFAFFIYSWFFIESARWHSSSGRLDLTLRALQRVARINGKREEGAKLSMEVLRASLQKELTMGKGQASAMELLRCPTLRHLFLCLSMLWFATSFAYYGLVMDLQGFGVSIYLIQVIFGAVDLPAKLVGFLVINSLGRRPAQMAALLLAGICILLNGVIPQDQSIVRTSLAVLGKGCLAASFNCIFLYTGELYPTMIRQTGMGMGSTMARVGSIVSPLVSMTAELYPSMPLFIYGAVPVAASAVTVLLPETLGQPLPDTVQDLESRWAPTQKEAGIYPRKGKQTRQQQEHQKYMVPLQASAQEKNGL
# Text: as §1, §2, §3, §4
# CYP2C19 [5] = target: T2, CYP2C19; experiment: NC-012 CYP450 inhibition screening, recombinant CYP2C19; format: in vitro ADME; conditions: 10 μM, fluorogenic substrate, recombinant human CYP
# Text: as §1, §2, §3, §4
# CYP2C8 = target: T4, CYP2C8 (Homo sapiens, UniProt P10632); experiment: NC-013 CYP2C8 inhibition in human liver microsomes; format: in vitro ADME; design: in human liver microsomal preparations; from tissue; host or cells: human liver microsomes; conditions: read-out: IC50, CYP2C8 (weak inhibition)
# T4 sequence (P10632 1-490): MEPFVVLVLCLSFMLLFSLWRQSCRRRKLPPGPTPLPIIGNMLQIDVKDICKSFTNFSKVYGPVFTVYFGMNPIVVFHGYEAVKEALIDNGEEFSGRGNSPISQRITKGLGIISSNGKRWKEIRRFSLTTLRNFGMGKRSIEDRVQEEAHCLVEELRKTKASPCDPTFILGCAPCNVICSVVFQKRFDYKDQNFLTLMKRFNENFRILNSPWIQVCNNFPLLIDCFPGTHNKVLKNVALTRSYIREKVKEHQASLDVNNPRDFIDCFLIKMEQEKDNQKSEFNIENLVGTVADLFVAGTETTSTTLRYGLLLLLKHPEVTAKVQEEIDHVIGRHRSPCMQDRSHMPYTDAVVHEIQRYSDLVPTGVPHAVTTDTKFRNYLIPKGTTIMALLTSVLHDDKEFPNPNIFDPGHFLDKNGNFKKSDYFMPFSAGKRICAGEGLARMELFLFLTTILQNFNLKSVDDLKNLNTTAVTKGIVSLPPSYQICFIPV
# Text: as §5, §6, §7, §8
# CYP2D6 [6] = target: T3, CYP2D6; experiment: NC-012 CYP450 inhibition screening, recombinant CYP2D6; format: in vitro ADME; conditions: 10 μM, fluorogenic substrate, recombinant human CYP
# Text: as §1, §2, §3, §4
compound,measurement,setting,value
"CCCCCOc1ccc(-c2ccc(-c3ccc(C(=O)N[C@H]4C[C@@H](O)[C@@H](OCC[N+](C)(C)C)NC(=O)[C@@H]5[C@@H](O)[C@@H](C)CN5C(=O)[C@H]([C@@H](C)O)NC(=O)[C@H]([C@H](O)[C@@H](O)c5ccc(O)cc5)NC(=O)[C@@H]5C[C@@H](O)CN5C(=O)[C@H]([C@@H](C)O)NC4=O)cc3)cc2)cc1 [Rezafungin] ({pTerphenylCO(4''-OnC5H11)}-[Orn(4R-OH,5R-OCH2CH2NMe3+)]T[Hyp][hTyr(3S-OH,4S-OH)]T[Pro(3S-OH,4S-Me)]; lactam 1-C)",substrate of MDR1,MDR1,not a substrate
same,inhibitor of probe substrate transport mediated via OCT1,"OCT1; in vitro cell test system, NC-152",determined to be an inhibitor
same,IC50,"OCT1; initial in vitro studies, read-out: IC50, OCT-1 uptake transporter (moderate inhibition)",> 6 µM
same,time-dependent inhibitor of CYP2C19,CYP2C19 [1],not a time-dependent inhibitor
same,time-dependent inhibitor of CYP2D6,CYP2D6 [2],not a time-dependent inhibitor
same,IC50,CYP3A4,> 25 µM
same,permeability coefficient,[3],< 0.2 ×10⁻⁶ cm/s
same,inhibitor of probe substrate transport mediated via MATE2-K,human MATE2-K,determined to be an inhibitor
same,deaths or serious adverse events,[4]; Study 2,no deaths or serious adverse events
same,severe TEAE deemed by the investigator to be related to the drug,"[4]; Study 2, one subject each",abdominal pain
same,tolerability,"[4]; once-weekly i.v. infusions, 400-mg loading dose followed by two 200-mg maintenance doses",generally well tolerated
same,substrate of OATP1B3,human OATP1B3,not to be a substrate
same,"uptake ratio, OATP1B3",human OATP1B3,< 2
same,inhibitor of probe substrate transport mediated via OAT1,human OAT1,determined to be an inhibitor
same,inhibition of CYP2C19,CYP2C19 [5],Minimal inhibition
same,IC50,CYP2C8,> 25 µM
same,inhibition of CYP2D6,CYP2D6 [6],Minimal inhibition

# From PMC10269561, “Absence of Clinically Meaningful Drug-Drug Interactions with Rezafungin: Outcome of Investigations” (Microbiology Spectrum, 2023)
